Measured values reported in patent US20170368182A1, “Pharmaceutical Semi-Solid Gels with Entrapped Calcium Phosphate Nanoparticles” (Belmont University, priority 2014, published 2017).
Where a name gives a salt, the structure may show the parent alone. Read-outs that look alike come from different tables or passages of the source.

Columns and labels:
[1] = Osmolality contribution of gel components; assay type: physicochemical; settings: 0.68% timolol maleate; 0.5% carbomer 980 calculated from 0.3% carbomer 934
Procedure: The exact osmolality 0.5% carbomer 980 gel was not known, but it was calculated using the osmolality of 0.3% carbomer 934.^19 The 0.68% timolol maleate contributes 31.4 mOsm and the carbomer contributes approximately 42 mOsm. To make the gel isotonic, 4.1 g of 5% dextrose would need to be added to obtain an isotonic gel with a tonicity of 300 mOsm. However, the results of this experiment will be compared to the results of a similar experiment using carboxymethylcellulose, CMC. […] The gel was thoroughly mixed by hand and then with a stir bar and magnetic stirrer to ensure uniformity.
Also, to make the concentrated 9% of the polymer to create enough for 3 gels, 9 g of the polymer was added to a 250 ml beaker. The polymer was hydrated with distilled water to 180 ml which took 1 hour to dissolve through the use of magnetic stirrer and stirring by hand. Next, 0.68 g of timolol maleate salt was added to the beaker with 60 ml of Na CMC. The contents were then q.s to a final concentration of 100 ml. […] Timolol maleate has osmolality of 31 mOsm and Na CMC has a theoretical osmolality of 470 mOsm which mitigated the need to add dextrose to reach osmolality.^18 The pH was assessed by using an electrode and the pH was between 7-8 which prevented the need to add sodium hydroxide to get to the physiological pH. […]

[2] = low viscosity ophthalmic solutions; cited from earlier work
[3] = first seven years of use / commercial production of ophthalmic product, cited from earlier work
[4] = Example 2; Na CMC value theoretical; cited from earlier work

Q: What does the source list for `CC(C)(C)NC[C@H](O)COc1nsnc1N1CCOCC1` [Timolol maleate]?
A: osmolality contribution [1]: 31.4 mOsm; share of Timolol that reaches intraocular tissues [2]: less than 5%; deaths [3]: Thirty two; deaths ([3]; listed as timolol maleate): ~37; osmolality [4]: 31 mOsm
